Molecules are shown by their SMILES.

This test has as its system γ-secretase. Briefly: Notch target gene reporter (Hes1-Luc / NotchΔE) luciferase assay in stable MEFs. The settings on record: L435F KI/+ stable cells, clone A23; FIG. 4. It is filed as cell-based, mouse. How it is done: For screening, cells were seeded in 384-well plates using Thermo Multidrop Combi at a density of 2,500 cells in 30 μl media and compounds were transferred by Seiko Compound Transfer Robot on the same day. For dose response, compounds were dispensed via the Hewlett Packard D300.
The steady glo luciferase assay system (Promega) was used to determine firefly luciferase activity per manufacturer's instructions. Luciferase activity was detected 24 hours after transfection using a plate reader (Perkin Elmer EnVision).
MEFs (1.5×10^6) were seeded in two 10-cm tissue culture plates; one to be used as a negative control. The next day, one plate is transfected with 9 μg CMV-NotchΔE (neomycin) and […] Hes1Luciferase (hygromycin) plasmids. 24-hours later, cells in both plates were passaged 1:100, 1:200 and 1:1000 and maintained in DMEM media supplied with 10% FBS, 100 ug/ml Hygromycin, and 200 μg/ml G418. Media was changed every 3 days and cells were checked daily ensuring that cells in the untransfected plates (negative control) have died. Within two weeks, hygromycin/G418 resistant colonies were formed with a diameter of approximately 5 mm. Each clone was transferred into a separate well of a 24-well plate. When confluent, MEFs were transferred into 6-well plates then into 10 cm dishes. For each clone, some cells were frozen while others harvested to test luciferase and notchΔE expression via luciferase assay, western blot and Q-RT-PCR.
For the identification of compounds that could increase the activity of γ-secretase, a Notch target gene reporter system was created. It contains two plasmids: Hes1 proximal promoter containing two Notch responsive CBF1/RBPJκ binding sites driving expression of a firefly luciferase in a hygromycin resistant plasmid (Hes1-Luc-Hygro), and CMV promoter and NotchΔE cloned in a neomycin resistant plasmid (CMV-NΔE-Neo) (FIG. 1A).
For the identification of compounds that could increase γ-secretase activity, L435F KI/+ stable cells expressing both CMV-NΔE-Neo and Hes1-Luc-hygro were generated. Luciferase expression in the selected clones was confirmed via a luciferase assay (FIG. 3A). We also performed quantitative RTPCR using primers specific for luciferase and Notch-cMyc to confirm their expression (FIG. 3B-C).
After generating the stable cells, 384-well plates were optimized in the EnVision plate reader for plate dimension, and crosstalk correction. To provide a robust (high Z′ factor) HTS-compatible assay, four clones expressing different levels of NotchΔE and luciferase (FIG. 3A-C, black arrows) were compared to identify the maximum difference in signal between DMSO, and DAPT (γ-secretase inhibitor), as well as genetic positive (a clone expressing high levels of luciferase) controls. […]
Turning to `COc1ccc2c(c1)c(CC(=O)O)c(C)n2C(=O)c1ccc(Cl)cc1` [Indomethacin], the luciferase activity result is reported as “lesser effect”. The value for `C[C@H](NC(=O)Cc1cc(F)cc(F)c1)C(=O)N[C@H](C(=O)OC(C)(C)C)c1ccccc1` [DAPT] was “reduction of luciferase activity”. With `CC(C)C[C@H](NC(=O)[C@H](Cc1ccccc1)C[C@@H](O)[C@H](Cc1ccccc1)NC(=O)OC(C)(C)C)C(=O)N[C@@H](Cc1ccccc1)C(N)=O` [L685,458], the luciferase activity entry is “reduction of luciferase activity”. As for `C[C@@H](C(=O)O)c1ccc(-c2ccccc2)c(F)c1` [R-Flurbiprofen], the luciferase activity result was “lesser effect”.

The values are drawn from patent US20240141408A1, “CELL-BASED ASSAY FOR IDENTIFICATION OF ACTIVATORS OF GAMMA-SECRETASE” (The Brigham and Women’s Hospital, Inc., priority 2021, published 2024).
